The target in the assay is T1, nitric oxide synthase (Mus musculus, UniProt P29477).
T1 construct: The reaction is started by adding 50 μl of cell lysate (prepared as above); endogenous in cells; host or cells: J774A-1 murine macrophage cell line, induced with LPS and IFN-gamma; crude cell lysate
The assay can be described thus: Screen 1: nitric oxide synthase inhibition, 3H-L-arginine to 3H-L-citrulline conversion, lysate of induced J774A-1 cells. The assay is classed as biochemical. To be noted: enzyme from IFNg/LPS-induced murine macrophage J774A-1 cell lysate; 1 hour at room temperature; read-out: IC50 (concentration of drug substance which gives 50% enzyme inhibition in the assay). As to the method:
The activity of compounds of formula (I), or a pharmaceutically acceptable salt thereof, may be screened for nitric oxide synthase inhibiting activity by a procedure based on that of Förstermann et al., Eur. J. Pharm., 1992, 225, 161-165. Nitric oxide synthase converts ^3H-L-arginine into ^3H-L-citrulline which can be separated by cation exchange chromatography and quantified by liquid scintillation counting.
Enzyme is prepared, after induction, from the cultured murine macrophage cell line J774A-1 (obtained from the laboratories of the Imperial Cancer Research Fund). J774A-1 cells are cultured in Dulbeccos Modified Eagles Medium (DMM) supplemented with 10% foetal bovine serum, 4 mM L-glutamine and antibiotics (100 units/ml penicillin G, […] & […] amphotericin B). Cells are routinely grown in […] flasks is containing 35 ml medium kept at 37° C. and in a humidified atmosphere containing 5% CO2. […]
Labelled L-citrulline is separated from labelled L-arginine using Dowex AG-50W. […] After allowing the samples to dry the L-citruulline is quantified by scintillation counting.
In a typical experiment basal activity is 300 dpm per 75 μl sample which is increased to 1900 dpm in the reagent controls. […] Compounds are tested at a range of concentrations and from the inhibitions obtained IC50 values are calculated. […]

As to `N=C(N)NN` [arninoguanidine], the IC50 stood at 10 µM.

Source of the values: US20060040992A1, “Antiinflammatory 3-arylthio-3-thiazolyl-alkylamines” (AstraZeneca AB, priority 2002, published 2006).
